Molecules are shown by their SMILES. Where only a bound is given, the exact number is not on record here.

In the first data set the test system is Pfa1 cells. Nature of the data set: Inhibition of non-apoptotic cell death after tamoxifen-induced GPx4 knockout in a recombinant cell line (Example B.4). It is filed as cell-based. The settings on record: Mus musculus, read-out: Pfa1/TAM IC50. Put shortly: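 Immortalised murine fibroblasts with tamoxifen-inducible CreERT2 for ablation of both GPx4 copies (Pfa1 cells) received tamoxifen on day 0 together with test compound. Cell survival was measured by AlamarBlue after 72 hours.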
Regarding `Clc1ccc(CNC2=Nc3ccccc3NC23CCOCC3)cc1` [O/S-3], the IC50 was below 0.5 µM.
`Clc1ccccc1CNC1=Nc2ccccc2NC12CCNCC2` [N-1]: the IC50 was below 0.05 µM.
Still for that read-out and setting: the same measure for `Clc1ccccc1CNC1=Nc2ccccc2NC12CCCCCC2` [C-205]: below 0.2 µM.
Take `CC1CCC2(CC1)Nc1ccccc1N=C2NCc1ccccc1Cl` (stereo not shown) [C-91]: the IC50 is below 0.2 µM.
On the same count and under the same terms, the same measure for `c1ccc(CCNC2=Nc3ccccc3NC23CCSCC3)cc1` [O/S-368]: below 5 µM; for `Fc1cc2c(cc1F)NC1(CCNCC1)C(NCc1ccccc1Cl)=N2` [N-259]: below 0.05 µM.
As to `CC1CN(C)CCC12Nc1ccccc1N=C2NCc1ccccc1` (stereo not shown) [N-256], the IC50 is below 0.5 µM.
On the same count and under the same terms, the same measure for `CC(NC1=Nc2ccccc2NC12CCSCC2)c1ccccc1` (stereo not shown) [O/S-367]: below 1 µM; for `c1ccc(C(CNC2=Nc3ccccc3NC23CCNCC3)c2ccccc2)cc1` [N-220]: below 0.05 µM.
The same measure, in the same setting: the value for `Cc1cc2c(cc1C)NC1(CCSCC1)C(NCc1ccccc1)=N2` [O/S-369] was below 0.1 µM; that for `FC(F)(F)c1cccc(CNC2=Nc3cc(Cl)c(Cl)cc3NC23CCCCC3)c1` [C-264] was below 0.5 µM.
On the same count and under the same terms, the same measure for `CC(=O)NC1CCC2(CC1)Nc1ccccc1N=C2NCc1ccccc1` (stereo not shown) [C-249]: below 5 µM.
Regarding `c1ccc(CNC2=Nc3ccccc3NC23CCOCC3)cc1` [O/S-337], the IC50 was below 5 µM.

In the next data set the test system is SH-SY5Y cells. In words: TNF-alpha-induced apoptosis, specificity for non-apoptotic cell death (Example B.3). The settings on record: compound 1 μM, TNF-alpha 10 ng/mL, FIG. 1. The class given is cell-based, human. The protocol:
SH-SY5Y cells were propagated and seeded in 96-well plates, together with compound N-1, N-2, N-10 of Table 1-N (FIG. 1(a)), compound O/S-6 or O/S-3 of Table 1-O/S (FIG. 1(b)), or compound C-12, C-91, or C-205 of Table 1-C (FIG. 1(c)) (each 1 μM) and TNF-alpha was added (final concentration: 10 ng/mL) to induce apoptosis. The apoptosis and pan-caspase inhibitor z-vad (final concentration: 50 μM) and the necroptosis inhibitor Necrostatin-1 (Nec-1; final concentration: 5 μM) were used for comparison. Control wells were established with vehicle only (DMSO), with and without treatment with TNF-alpha to induce apoptosis. Cells were incubated, and cell survival was detected and quantified. Percentage cell survival after TNF-alpha-induced apoptosis is shown (error bars indicate standard deviation (SD)).
Briefly, SH-SY5Y cells were propagated and seeded in 96-well plates, together with the compound to be tested (1 μM), generally as described in Example B.1, except they were seeded at 1,000 cell/well and instead of BSO, TNF-alpha (Invitrogen) was added to a final concentration of 10 ng/mL to induce apoptosis. The apoptosis and pan-caspase inhibitor Z-VAD-fmk (Enzo Life Science; final concentration 50 μM) and the necroptosis inhibitor Necrostatin-1 (Nec-1; Enzo Life Science; final concentration 5 μM) were used for comparison. Control wells were established with vehicle only (DMSO), with and without treatment with TNF-alpha to induce apoptosis. Cells were incubated, and cell survival was detected and quantified as described in Example B.1.
Turning to `Clc1ccc(CNC2=Nc3ccccc3NC23CCOCC3)cc1` [O/S-3], the “Percentage cell survival after TNF-alpha-induced apoptosis” value is “Non-inhibition of apoptotic cell-death”.
Same read-out and setting: the same measure for `Clc1ccccc1CNC1=Nc2ccccc2NC12CCNCC2` [N-1]: “Non-inhibition of apoptotic cell-death”; for `Clc1ccccc1CNC1=Nc2ccccc2NC12CCCCCC2` [C-205]: “Non-inhibition of apoptotic cell-death”; for `CC1CCC2(CC1)Nc1ccccc1N=C2NCc1ccccc1Cl` (stereo not shown) [C-91]: “Non-inhibition of apoptotic cell-death”.

The test system of a further data set is human neuroblastoma cell line SH-SY5Y. Nature of the data set: Inhibition of BSO-induced non-apoptotic cell death (Example B.1). The settings on record: SH-SY5Y cells, 50 μM BSO, 72 hours, read-out: SH-SY5Y/BSO IC50. The class given is cell-based. An excerpt:
Inhibition of BSO-Induced Non-Apoptotic Cell Death by Compounds Disclosed Herein
L-Buthionine sulfoximine (BSO) is a well-known glutathione (GSH) depletory, which inhibits gamma-glutamyl-cysteine-synthetase, the enzyme catalyzing the rate-limiting step in GSH biosynthesis. The human neuroblastoma cell line SH-SY5Y is sensitive to BSO-induced intracellular glutathione depletion, which causes high levels of reactive oxygen species (ROS) and cellular stress mimicking cellular conditions following ischemia (cf., e.g., Yamada et al., Neurochem. Int. 59:1003-9 (2011)).
Compounds disclosed herein were evaluated for their ability to promote cell survival upon administration of a lethal dose of BSO to cell-culture medium. Briefly, SH-SY5Y cells (ATCC® CRL-2266™) were propagated in DMEM supplemented with 10% FBS/1% Penicillin-Streptomycin, and then seeded onto 96-well plates at a concentration of 750 cells/well in 100 μL of media, to which BSO (Sigma Aldrich) was added (to a final concentration of 50 μM) together with increasing concentrations of the compound to be tested, and the plates incubated at 37° C./5% CO2 for 72 hours. Compound dilutions (0.5 pM to 100 μM) were prepared from 10 mM stocks dissolved in DMSO and diluted in media. Cells treated with BSO alone were used as negative control and alpha-Tocopherol (Sigma Aldrich) was used as positive control. Compound concentrations were tested in triplicate. After incubation, cell survival was detected using the live/dead cell assay AquaBluer™ (MultiTarget Pharmaceuticals) and quantified using a fluorescence plate reader (excitation filter: 530-560 nm/emission filter: 590 nm) (SpectraMax M4; Molecular Devices). Fluorescence data so obtained was normalised to the percentage of surviving cells and IC50 values calculated using the GraphPad Prism (GraphPad Software, Inc) software package.
As for `Clc1ccc(CNC2=Nc3ccccc3NC23CCOCC3)cc1` [O/S-3], the IC50 is below 0.5 µM.
As to `Clc1ccccc1CNC1=Nc2ccccc2NC12CCNCC2` [N-1], the IC50 is below 0.02 µM.
Still for that read-out and setting: the value for `Clc1ccccc1CNC1=Nc2ccccc2NC12CCCCCC2` [C-205] was below 0.1 µM.
The same measure, in the same setting: the same measure for `CC1CCC2(CC1)Nc1ccccc1N=C2NCc1ccccc1Cl` (stereo not shown) [C-91]: below 0.02 µM.
Take `c1ccc(CCNC2=Nc3ccccc3NC23CCSCC3)cc1` [O/S-368]: the IC50 is below 2 µM.
The same measure, in the same setting: the value for `Fc1cc2c(cc1F)NC1(CCNCC1)C(NCc1ccccc1Cl)=N2` [N-259] was below 0.01 µM.
Same read-out and setting: the value for `CC1CN(C)CCC12Nc1ccccc1N=C2NCc1ccccc1` (stereo not shown) [N-256] was below 0.05 µM; that for `CC(NC1=Nc2ccccc2NC12CCSCC2)c1ccccc1` (stereo not shown) [O/S-367] was below 0.2 µM; that for `c1ccc(C(CNC2=Nc3ccccc3NC23CCNCC3)c2ccccc2)cc1` [N-220] was below 0.05 µM.
On the same count and under the same terms, the value for `Cc1cc2c(cc1C)NC1(CCSCC1)C(NCc1ccccc1)=N2` [O/S-369] was below 0.05 µM; that for `FC(F)(F)c1cccc(CNC2=Nc3cc(Cl)c(Cl)cc3NC23CCCCC3)c1` [C-264] was below 0.05 µM; that for `CC(=O)NC1CCC2(CC1)Nc1ccccc1N=C2NCc1ccccc1` (stereo not shown) [C-249] was below 1 µM.
For `c1ccc(CNC2=Nc3ccccc3NC23CCOCC3)cc1` [O/S-337], the IC50 was below 0.5 µM.

The same data set, now with this note: SH-SY5Y cells, BSO 50 μM, 72 hours, cell survival (AquaBluer), read-out: SH-SY5Y/BSO (Example B.1) IC50.
With `Clc1ccc(CNC2=Nc3ccccc3NC23CCOCC3)cc1` [O/S-3], the IC50 is around 0.1 µM.
Same read-out and setting: the same measure for `Clc1ccccc1CNC1=Nc2ccccc2NC12CCNCC2` [N-1]: 0.00651 µM; for `Clc1ccccc1CNC1=Nc2ccccc2NC12CCCCCC2` [C-205]: 0.0467 µM; for `CC1CCC2(CC1)Nc1ccccc1N=C2NCc1ccccc1Cl` (stereo not shown) [C-91]: 0.00933 µM.

The subject of the next data set is mouse hippocampal cell line (Ht22). Nature of the data set: Inhibition of glutamate-induced non-apoptotic cell death (Example B.2). It is filed as cell-based. The settings on record: HT-22, Ht22 cells, glutamate 5 mM, 72 hours, cell survival, read-out: Ht22/GLU (Example B.2) IC50. Put shortly:
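Protection from lethal glutamate (5 mM final) measured in mouse hippocampal Ht22 cells co-treated at seeding with compound from 0.5 pM to 100 μM, in triplicate. Survival read after 72 h at 37 °C/5% CO2, against glutamate-only and alpha-tocopherol controls.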
For the compound `Clc1ccc(CNC2=Nc3ccccc3NC23CCOCC3)cc1` [O/S-3], the IC50 was around 0.1 µM.
Take `Clc1ccccc1CNC1=Nc2ccccc2NC12CCNCC2` [N-1]: the IC50 amounted to 0.0103 µM.
The same measure, in the same setting: the value for `Clc1ccccc1CNC1=Nc2ccccc2NC12CCCCCC2` [C-205] was around 0.1 µM.
On the same count and under the same terms, the same measure for `CC1CCC2(CC1)Nc1ccccc1N=C2NCc1ccccc1Cl` (stereo not shown) [C-91]: around 0.05 µM.

The data set is the same for the next values; noted with them: HT-22, Ht22 cells, glutamate-induced cell death, read-out: Ht22/GLU.
On to `Clc1ccc(CNC2=Nc3ccccc3NC23CCOCC3)cc1` [O/S-3], for which the IC50 was below 0.1 µM.
Still for that read-out and setting: the same measure for `Clc1ccccc1CNC1=Nc2ccccc2NC12CCNCC2` [N-1]: below 0.2 µM; for `Clc1ccccc1CNC1=Nc2ccccc2NC12CCCCCC2` [C-205]: below 0.5 µM; for `CC1CCC2(CC1)Nc1ccccc1N=C2NCc1ccccc1Cl` (stereo not shown) [C-91]: below 0.2 µM.
`c1ccc(CCNC2=Nc3ccccc3NC23CCSCC3)cc1` [O/S-368]: the IC50 is below 2 µM.
The same measure, in the same setting: the value for `Fc1cc2c(cc1F)NC1(CCNCC1)C(NCc1ccccc1Cl)=N2` [N-259] was below 0.05 µM.
On to `CC1CN(C)CCC12Nc1ccccc1N=C2NCc1ccccc1` (stereo not shown) [N-256], for which the IC50 was below 0.5 µM.
The same measure, in the same setting: the same measure for `CC(NC1=Nc2ccccc2NC12CCSCC2)c1ccccc1` (stereo not shown) [O/S-367]: below 0.5 µM; for `c1ccc(C(CNC2=Nc3ccccc3NC23CCNCC3)c2ccccc2)cc1` [N-220]: below 0.02 µM; for `Cc1cc2c(cc1C)NC1(CCSCC1)C(NCc1ccccc1)=N2` [O/S-369]: below 0.2 µM.
`FC(F)(F)c1cccc(CNC2=Nc3cc(Cl)c(Cl)cc3NC23CCCCC3)c1` [C-264]: the IC50 is below 0.5 µM.
Still for that read-out and setting: the value for `CC(=O)NC1CCC2(CC1)Nc1ccccc1N=C2NCc1ccccc1` (stereo not shown) [C-249] was below 5 µM.
For `c1ccc(CNC2=Nc3ccccc3NC23CCOCC3)cc1` [O/S-337], the IC50 is below 5 µM.

Tested on in another data set: not listed separately
Nature of the data set: Cellular toxicity, same assay as Example B.4 without TAM (Example B.5). The class given is cell-based. The settings on record: mouse; Pfa1 cells without TAM; read-out: TC50 (the source's name). The text has this: Cellular Toxicity of Compounds of the Invention
An estimate of the toxicity for compounds of the invention was obtained by using the same assay as described in Example B.4, but without the addition of TAM. […] Such TC50 values obtained for certain compounds disclosed herein, together with an approximate therapeutic window (estimated by dividing each TC50 by the corresponding IC50 determined from example B.4) are shown in Table 3.
For the compound `Clc1ccc(CNC2=Nc3ccccc3NC23CCOCC3)cc1` [O/S-3], the CC50 fell in the range of 20 to 50 µM.
As for `Clc1ccccc1CNC1=Nc2ccccc2NC12CCNCC2` [N-1], the CC50 fell in the range of 10 to 20 µM.
As to `Clc1ccccc1CNC1=Nc2ccccc2NC12CCCCCC2` [C-205], the CC50 was in the range of 20 to 50 µM.
The same measure, in the same setting: the value for `CC1CCC2(CC1)Nc1ccccc1N=C2NCc1ccccc1Cl` (stereo not shown) [C-91] was 10 to 20 µM; that for `c1ccc(CCNC2=Nc3ccccc3NC23CCSCC3)cc1` [O/S-368] was 20 to 50 µM; that for `Fc1cc2c(cc1F)NC1(CCNCC1)C(NCc1ccccc1Cl)=N2` [N-259] was 1 to 2 µM.
On the same count and under the same terms, the same measure for `CC1CN(C)CCC12Nc1ccccc1N=C2NCc1ccccc1` (stereo not shown) [N-256]: 10 to 20 µM.
For `CC(NC1=Nc2ccccc2NC12CCSCC2)c1ccccc1` (stereo not shown) [O/S-367], the CC50 lay within 20 to 50 µM.
With `c1ccc(C(CNC2=Nc3ccccc3NC23CCNCC3)c2ccccc2)cc1` [N-220], the CC50 was in the range of 2 to 5 µM.
For the compound `Cc1cc2c(cc1C)NC1(CCSCC1)C(NCc1ccccc1)=N2` [O/S-369], the CC50 lay in the range of 10 to 20 µM.
Same read-out and setting: the value for `FC(F)(F)c1cccc(CNC2=Nc3cc(Cl)c(Cl)cc3NC23CCCCC3)c1` [C-264] was 10 to 20 µM; that for `CC(=O)NC1CCC2(CC1)Nc1ccccc1N=C2NCc1ccccc1` (stereo not shown) [C-249] was 50 to 100 µM.
The same measure, in the same setting: the value for `c1ccc(CNC2=Nc3ccccc3NC23CCOCC3)cc1` [O/S-337] was 50 to 100 µM.

Values taken from patent publication US10280179B2, “Spiroquinoxaline derivatives as inhibitors of non-apoptotic regulated cell-death” (Helmholtz Zentrum Munchen—Deutches Forschungszentrum Fur …, priority 2013, dated 2019).
